# Experimental data as given in paper PMC11650735, “Challenging Reported Frizzled-Targeting Compounds in Selective Assays Reveals Lack of Functional Inhibition and Claimed Profiles” (ACS Pharmacology & Translational Science, 2024).
# Tested on: individually reexpressed FZDs (1,2,4,5,7,8, and 10)
# Test: TopFlash in ΔFZD1–10 HEK293T, panel of individually reexpressed FZDs, Wnt3a-stimulated (collective statements)
# Settings: compared with pcDNA+CHIR99021
smiles,measurement,value
O=C(/C=C/c1ccc2c(c1)OCO2)Nc1ccc(-n2cnc3ccccc32)cc1 [SRI35959],FZDs whose reintroduction reduces the compound's potency,"FZD1,4, and 7"
NC(=O)N1c2ccccc2C=Cc2ccccc21 [carbamazepine],FZDs whose reintroduction reduces the compound's potency,FZD5 and FZD8
